Publication PMC10791743, “Selective CK1α degraders exert antiproliferative activity against a broad range of human cancer cell lines” (Nature Communications, 2024)
Where “and” joins values, the source holds several entries; their conditions need not be identical. Equal values may be shown once.

Key:
[1] = molecular target: T1, CRBN (Homo sapiens, UniProt Q96SW2); experiment: CRBN fluorescence polarization (FP) displacement assay; type: binding; set-up: key: % activity normalized to DMSO (0) and CC-220 (100) controls
T1 construct: 6XHis (N)
T1 sequence (Q96SW2 whole entry): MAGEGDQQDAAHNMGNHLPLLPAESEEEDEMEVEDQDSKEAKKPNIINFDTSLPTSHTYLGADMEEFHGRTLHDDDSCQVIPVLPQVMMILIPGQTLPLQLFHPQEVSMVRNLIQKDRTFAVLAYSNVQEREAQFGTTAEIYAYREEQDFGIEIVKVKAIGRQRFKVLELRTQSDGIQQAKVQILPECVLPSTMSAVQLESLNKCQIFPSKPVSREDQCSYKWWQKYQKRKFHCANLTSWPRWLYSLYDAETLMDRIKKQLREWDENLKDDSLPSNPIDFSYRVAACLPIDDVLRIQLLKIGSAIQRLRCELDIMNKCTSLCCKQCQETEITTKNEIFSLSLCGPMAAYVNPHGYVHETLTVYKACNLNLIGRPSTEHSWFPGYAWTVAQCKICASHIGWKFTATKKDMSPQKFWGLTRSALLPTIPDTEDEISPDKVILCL
T1 sequence (Q16531 whole entry partner): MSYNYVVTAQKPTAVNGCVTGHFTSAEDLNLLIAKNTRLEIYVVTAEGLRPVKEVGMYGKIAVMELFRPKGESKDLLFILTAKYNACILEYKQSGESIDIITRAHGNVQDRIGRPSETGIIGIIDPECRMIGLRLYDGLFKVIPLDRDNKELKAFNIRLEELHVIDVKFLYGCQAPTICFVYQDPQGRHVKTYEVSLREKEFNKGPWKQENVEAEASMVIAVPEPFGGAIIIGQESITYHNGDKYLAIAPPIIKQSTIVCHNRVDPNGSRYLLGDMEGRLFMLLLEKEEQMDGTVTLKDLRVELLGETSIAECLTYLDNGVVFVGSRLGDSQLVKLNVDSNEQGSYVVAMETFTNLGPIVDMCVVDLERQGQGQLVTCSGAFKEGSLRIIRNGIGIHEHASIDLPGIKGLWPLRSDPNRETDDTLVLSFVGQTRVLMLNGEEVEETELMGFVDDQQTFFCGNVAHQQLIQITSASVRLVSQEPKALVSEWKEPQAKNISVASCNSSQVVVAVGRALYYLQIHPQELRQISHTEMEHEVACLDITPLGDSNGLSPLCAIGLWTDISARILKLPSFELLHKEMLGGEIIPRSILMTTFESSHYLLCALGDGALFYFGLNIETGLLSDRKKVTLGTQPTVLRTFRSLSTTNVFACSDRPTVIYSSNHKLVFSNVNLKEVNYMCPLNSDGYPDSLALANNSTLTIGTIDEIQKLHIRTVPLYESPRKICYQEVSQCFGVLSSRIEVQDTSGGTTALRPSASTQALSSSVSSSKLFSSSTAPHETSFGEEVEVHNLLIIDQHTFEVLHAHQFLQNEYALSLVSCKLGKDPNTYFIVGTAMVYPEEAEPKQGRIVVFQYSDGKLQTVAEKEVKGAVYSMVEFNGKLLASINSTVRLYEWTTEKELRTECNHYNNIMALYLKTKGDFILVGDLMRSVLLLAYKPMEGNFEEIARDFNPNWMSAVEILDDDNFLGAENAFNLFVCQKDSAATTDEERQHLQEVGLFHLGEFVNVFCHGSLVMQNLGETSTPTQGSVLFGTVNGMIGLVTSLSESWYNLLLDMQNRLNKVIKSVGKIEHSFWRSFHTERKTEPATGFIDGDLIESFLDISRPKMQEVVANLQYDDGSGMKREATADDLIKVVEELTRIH
Method: The assay cocktail was prepared by combining 6XHis-CRBN-DDB1 protein (200 nM) and Cy5-O-Len probe (30 nM) in 20 mM HEPES pH 7, 150 mM NaCl, 0.005% Tween-20 assay buffer. […] Then 20 μL of the assay cocktail was dispensed to wells of the assay plate with a Multidrop Combi Reagent Dispenser (Thermo Fisher Scientific, USA). The plates were incubated in the dark for 1 h at room temperature and then read on an Envision plate reader (Perkin Elmer, USA). Raw intensity values for each compound at each concentration were normalized to obtain % activity using the following equation: 100×[(mean(negctrl)–compound)/(mean (negctrl)–mean (posctrl))], and then pooled from replicate experiments prior to fitting. Here, negctrl and posctrl refer to the negative (DMSO) and positive controls (CC-220) on each plate. Dose-response curves were fit to the Hill equation using the GraphPad Prism (version 10).

[2] = test system: MOLM-13 cells; experiment: Annexin-V staining for apoptosis, wild type MOLM-13; type: cell-based, human; settings: for Treatment-induced cell death (annexin-V): vs DMSO; for total apoptosis, flow cytometry: MOLM-13; for Late apoptosis, flow cytometry / Early apoptosis, flow cytometry: WT
Method: Wild type and CRBN^−/− MOLM-13 cells were grown in 12-well plates (TPP, Techno Plastic Products AG) with 500,000 cells per well in 2 ml total media volume. Cells were treated with 1 μl/ml DMSO or 1 μM compound in triplicate, and incubated for 24 or 72 h at 37 °C. To prepare samples, this buffer was used: 10 mM HEPES, 0.14 M NaCl, 2.5 mM CaCl2 pH 7.4, 2% v/v FBS in UltraPure water (Invitrogen). After incubation, samples were collected in 5-ml tubes for flow cytometry (Falcon). Single-stain controls consisted of ~150 μl of multiple samples combined. Wells were washed with 1 ml of buffer that was added to the corresponding sample tube. Cells were centrifuged at 500×g for 5 min at 4 °C to form a pellet. Supernatant was decanted and cells were washed again with 3 ml of buffer, then centrifuged. After decanting the supernatant, 3 μl of APC-conjugated anti-Annexin-V antibody (BioLegend) was added to each tube in the residual buffer left behind. Samples were mixed by vortex and incubated at room temperature in the dark for 20 min. Samples were then washed and centrifuged a final time, decanting the supernatant and blotting the tubes to remove residual buffer. 50 μl of buffer with DAPI was added to all appropriate samples and mixed, then analyzed by flow cytometry.
Supplementary Fig. 13: Gating for Annexin V flow cytometry analysis. Total cells were gated to remove cell debris, followed by single cell gating on the FSC-A/FSC-H diagonal. Within the single […]
Live cells are negative for both fluorescent markers, DAPI positive/APC negative cells are necrotic, APC positive/DAPI negative cells are still alive but in the early stages of apoptosis, and double positive cells are dead via apoptosis. Percentages of early and late apoptosis were plotted in supplementary figures 4 and 5.
(1 picture or pasted object on this page, not shown here)

[3] = molecular target: CK1α (Homo sapiens, UniProt P48729+Q96SW2); experiment: CK1α HiBiT live-cell kinetic degradation assay (HEK293 cells); type: cell-based; set-up: engineered by CRISPR/Cas9 to express endogenous CK1α (HEK293 cells) with a HiBiT tag; settings: for Dmax at 0.111 µM: CK1, 0.111 uM; for Dmax at 0.111 µM / Dmax at 0.333 µM / Dmax at 1 µM / Dmax at 3 µM / Dmax at 10 µM: read-out: CK1a Percent Maximum Degradation; for Dmax at 0.333 µM: CK1, 0.333 uM; for Dmax at 1 µM: CK1, 1 uM; for Dmax at 3 µM: CK1, 3 uM; for Dmax at 10 µM: CK1, 10 uM; for DC50: HEK293, at 4 h
Sequence of CK1α (P48729 whole entry): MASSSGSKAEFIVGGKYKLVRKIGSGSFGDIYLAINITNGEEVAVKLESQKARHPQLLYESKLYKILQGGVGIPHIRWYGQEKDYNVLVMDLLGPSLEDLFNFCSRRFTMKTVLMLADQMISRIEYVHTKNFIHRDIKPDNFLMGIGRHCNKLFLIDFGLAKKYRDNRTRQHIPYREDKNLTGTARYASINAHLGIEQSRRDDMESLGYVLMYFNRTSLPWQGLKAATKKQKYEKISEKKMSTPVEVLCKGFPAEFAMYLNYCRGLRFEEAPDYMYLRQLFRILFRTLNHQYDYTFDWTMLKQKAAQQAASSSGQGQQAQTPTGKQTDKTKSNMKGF
Sequence of CK1α (Q96SW2 whole entry): as the sequence (Q96SW2 whole entry) above
Sequence of CK1α (Q16531 whole entry partner): as the sequence (Q16531 whole entry partner) above
From the text: To measure cellular protein levels, we used cell lines that have been engineered by CRISPR/Cas9 to express endogenous CK1α (HEK293 cells) or IKZF1 (Jurkat cells) with a HiBiT tag, which when coupled with LgBiT expression forms NanoBiT, a bioluminescent protein that can be used for kinetic studies of protein degradation. […] Cell viability was also monitored with CellTiter Glo 2.0 (Promega) at the completion of the experiment to ensure that loss of protein was not a consequence of a loss of cell viability.
IKZF1-HiBiT Jurkat LgBiT stable cells were seeded at 60,000 cells/well in 50% growth media/50% CO2 independent medium supplemented with 10% FBS and 1× Endurazine substrate. […] A dose–response curve was generated by performing 3-fold dilutions of each compound including a DMSO-only control in growth media. For live cell kinetic degradation assays, diluted compounds were added to CK1α and β-catenin plates and placed in a GloMax Discover (Promega, Cat. #GM3000) preheated to 37 °C or added to IKZF1 plates and placed in a CLARIOstar Plus (BMG LABTECH) preheated to 37 °C.
Relative protein level was determined based on normalization to the DMSO control and reported at Fractional RLUs. Degradation rate and degradation maximums were calculated from Fractional RLUs as previously described[38] using GraphPad Prism software. β-catenin stabilization time of onset for each concentration curve was calculated in GraphPad Prism by fitting an unconstrained plateau followed by one phase association model using the equation below (Y = IF(X < X0, Y0,Y0+(Plateau−Y0)*(1−exp(−K*(X−X0))))). The parameter, X0 was used as time of onset for each compound concentration.

| Compound | Treatment-induced cell death (annexin-V) ([2]; 1 μM, 72 h) | total apoptosis, flow cytometry ([2]; SI_Fig 4c, DMSO 9.7, 8.6, 9.8) | total apoptosis, flow cytometry ([2]; SI_Fig 5c, DMSO 8, 7.6, 6.1) | Late apoptosis, flow cytometry ([2]; SI_Fig 4b, DMSO 3, 2.7, 3) | Early apoptosis, flow cytometry ([2]; SI_Fig 4b, DMSO 6.8, 5.8, 6.8) | Late apoptosis, flow cytometry ([2]; SI_Fig 5b, DMSO 1.5, 1.2, 1.2) | Early apoptosis, flow cytometry ([2]; SI_Fig 5b, DMSO 6.5, 6.4, 4.9) | CK1a Degradation Rate Constant ([3]; 0.111 uM) | CK1a Degradation Rate Constant ([3]; 0.333 uM) | CK1a Degradation Rate Constant ([3]; 1 uM) | CK1a Degradation Rate Constant ([3]; 3 uM) | CK1a Degradation Rate Constant ([3]; 10 uM) | Dmax at 0.111 µM [3] | Dmax at 0.333 µM [3] | Dmax at 1 µM [3] | Dmax at 3 µM [3] | Dmax at 10 µM ([3]; replicates) | CK1α degradation depth (HiBiT) ([3]; HEK293) | DC50 [3] | also measured |
| --- | --- | --- | --- | --- | --- | --- | --- | --- | --- | --- | --- | --- | --- | --- | --- | --- | --- | --- | --- | --- |
| Cc1cccc(C(=O)Nc2ccc3c(c2)CN(C2CCC(=O)NC2=O)C3=O)c1 (centres unmarked) [SJ0040] | increased cell death | 14.9 and 12.6 and 13.6 | 33.8 and 33.6 and 34.8 | 4.1 and 3.7 and 4.5 | 10.8 and 9 and 9.1 | 11.1 and 11.7 and 11.8 | 22.7 and 21.8 and 23.1 | 1.349 λ/hour | 1.489 λ/hour | 1.645 λ/hour | 1.768 λ/hour | 1.807 λ/hour | 85.1% | 88.2% | 87.9% | 87.3% | 89% | near-complete degradation | 10 nM | CRBN binding FP, Activity ([1]; SJ10040, [Compound] 2.71597 mM): 47.7349 and 37.554 and 42.475; CRBN binding FP, Activity ([1]; SJ10040, [Compound] 8.14792 mM): 56.459 and 48.508 and 56.8103; CRBN binding FP, Activity ([1]; SJ10040, [Compound] 24.44375 mM): 60.7319 and 59.4621 and 64.1617; CRBN binding FP, Activity ([1]; SJ10040, [Compound] 73.33125 mM): 69.456 and 67.5893 and 79.2322; CK1a Percent Maximum Degradation ([3]; 0.111 uM, listed as SJ10040): 87.09% and 81.49% and 82.97%; CK1a Percent Maximum Degradation ([3]; 0.333 uM, listed as SJ10040): 81.30% and 83.99% and 85.23%; CK1a Percent Maximum Degradation ([3]; 1 uM, listed as SJ10040): 85.32% and 82.59% and 87.28%; CK1a Percent Maximum Degradation ([3]; 3 uM, listed as SJ10040): 84.24% and 83.34% and 82.73%; CK1a Percent Maximum Degradation ([3]; 10 uM, replicates, listed as SJ10040): 89.47% and 88.18% and 86.50% |
| O=C1CCC(N2Cc3cc(Nc4noc5ccccc45)ccc3C2=O)C(=O)N1 (centres unmarked) [SJ3149] | increased cell death | 30.6 and 31.3 and 31.4 | 81.1 and 51.1 and 84.7 | 8.5 and 9.4 and 9.1 | 22.2 and 21.9 and 22.3 | 37.1 and 24.3 and 39.1 | 44 and 26.8 and 45.7 | 2.872 λ/hour | 3.25 λ/hour | 3.334 λ/hour | 3.448 λ/hour | 3.507 λ/hour | 90.6% | 91.9% | 92.6% | 92.7% | 95.4% | near-complete degradation | 6 nM | CRBN binding FP, Activity ([1]; SJ3149, [Compound] 0.25625 mM): 17.1311 and 16.8724 and 13.6243; CRBN binding FP, Activity ([1]; SJ3149, [Compound] 0.76875 mM): 34.3137 and 35.3073 and 29.4577; CRBN binding FP, Activity ([1]; SJ3149, [Compound] 2.31250 mM): 56.4886 and 56.6964 and 54.8148; CRBN binding FP, Activity ([1]; SJ3149, [Compound] 6.93750 mM): 75.4128 and 74.3041 and 71.3624; CRBN binding FP, Activity ([1]; SJ3149, [Compound] 20.81250 mM): 81.1017 and 84.4669 and 74.3386; CRBN binding FP, Activity ([1]; SJ3149, [Compound] 62.50000 mM): 71.4654 and 75.3676 and 66.9577; Cells dead or dying (annexin-V) ([2]; 1 μM, 72 h): ~ 80%; CK1a Percent Maximum Degradation ([3]; 0.111 uM): 90.93% and 90.25% and 91.10%; CK1a Percent Maximum Degradation ([3]; 0.333 uM): 91.59% and 92.14% and 92.11%; CK1a Percent Maximum Degradation ([3]; 1 uM): 92.68% and 92.87% and 92.05%; CK1a Percent Maximum Degradation ([3]; 3 uM): 93.01% and 93.23% and 92.96%; CK1a Percent Maximum Degradation ([3]; 10 uM, replicates): 95.39% and 95.59% and 95.66%; CK1α degradation rate relative to SJ0040 ([3]; HEK293): ~2 fold; CK1α degradation rate relative to lenalidomide ([3]; HEK293): ~10 fold; CK1α degradation within the first 30 min ([3]; at most concentrations): > 50% |
